Values of other authors in patent publication US12016851B2, “Modified release pharmaceutical formulations comprising deferiprone” (Chiesi Farmaceutici S.p.A., priority 2022, dated 2024).

Assays:
[1] = monotherapy; Maggio 2002, Galanello 2006
[2] = in vivo

half-life [2]: 2 to 3 h
Structure (SMILES): Cc1c(O)c(=O)ccn1C [Deferiprone, 3-hydroxy-1,2-dimethylpyridin-4-one]
improving myocardial siderosis and cardiac function [1]: superior to deferoxamine monotherapy
